Where two headings read alike, the source gives them in different places.
Legend:
[1] = test system: IL-2 stimulated pSTAT5 in Tall-1 T cells; assay: Cellular JAK3 potency assay: inhibition of IL-2 stimulated pSTAT5 in Tall-1 T cells; format: cell-based, human; details: for IC50: Homo sapiens, read-out: Tall-1 (pIC50) (converted)
Procedure, shortened: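 Inhibition of IL-2-induced pSTAT5 was quantified by AlphaLisa in Tall-1 cell lysates. Compound exposure lasted 1 h before 30 min stimulation with 300 ng/ml IL-2 final.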

JAK1 = target: T1, JAK1 (Homo sapiens, UniProt P23458); assay: Biochemical JAK1 kinase assay (LanthaScreen); details: for Ki: read-out: JAK 1 (pKi) (converted)
T1 construct: GST; purchased Life Technologies
T1 sequence (P23458 whole entry): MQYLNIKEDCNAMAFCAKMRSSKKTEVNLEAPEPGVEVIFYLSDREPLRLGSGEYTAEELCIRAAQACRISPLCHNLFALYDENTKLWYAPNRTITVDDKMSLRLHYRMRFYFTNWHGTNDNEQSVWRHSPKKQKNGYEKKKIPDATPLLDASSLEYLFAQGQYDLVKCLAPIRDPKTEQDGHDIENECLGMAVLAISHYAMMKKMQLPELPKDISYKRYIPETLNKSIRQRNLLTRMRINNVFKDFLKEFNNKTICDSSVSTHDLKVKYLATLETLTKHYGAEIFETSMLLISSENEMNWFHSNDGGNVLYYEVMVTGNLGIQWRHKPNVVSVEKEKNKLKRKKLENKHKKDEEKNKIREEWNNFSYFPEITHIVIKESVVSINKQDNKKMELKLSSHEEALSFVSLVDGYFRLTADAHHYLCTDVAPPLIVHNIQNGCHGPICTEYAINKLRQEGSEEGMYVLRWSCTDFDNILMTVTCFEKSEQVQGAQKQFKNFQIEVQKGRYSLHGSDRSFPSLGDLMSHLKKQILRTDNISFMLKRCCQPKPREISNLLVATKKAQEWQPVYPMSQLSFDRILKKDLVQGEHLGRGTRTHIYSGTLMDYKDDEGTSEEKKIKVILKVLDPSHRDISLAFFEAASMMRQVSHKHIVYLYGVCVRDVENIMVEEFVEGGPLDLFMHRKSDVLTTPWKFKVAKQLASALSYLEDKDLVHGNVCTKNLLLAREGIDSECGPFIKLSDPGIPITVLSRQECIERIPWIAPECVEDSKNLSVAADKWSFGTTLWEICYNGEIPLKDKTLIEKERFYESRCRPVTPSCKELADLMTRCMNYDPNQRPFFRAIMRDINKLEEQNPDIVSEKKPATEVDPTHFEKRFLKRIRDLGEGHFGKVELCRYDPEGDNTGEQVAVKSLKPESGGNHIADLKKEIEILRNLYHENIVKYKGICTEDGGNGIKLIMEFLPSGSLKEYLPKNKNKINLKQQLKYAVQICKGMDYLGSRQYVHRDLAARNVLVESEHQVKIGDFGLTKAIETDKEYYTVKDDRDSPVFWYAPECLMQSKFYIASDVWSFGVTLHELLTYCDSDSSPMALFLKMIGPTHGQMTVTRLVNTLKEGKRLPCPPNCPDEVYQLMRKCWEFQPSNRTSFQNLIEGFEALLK
Procedure, shortened: (§1)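 Values are pKi, calculated by Cheng-Prusoff from IC50 obtained by robust 4-parameter fitting of percent inhibition. The kinase reaction used GFP-STAT1 peptide in HEPES pH 7.5 buffer with MgCl2, EGTA and Brij-35, ATP-initiated after compound pre-incubation, 1 h at ambient temperature.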

JAK3 = target: T2, JAK3 (Homo sapiens, UniProt P52333); assay: Biochemical JAK3 kinase assay (LanthaScreen); set-up: GST; purchased Life Technologies
T2 sequence (P52333 1-1124): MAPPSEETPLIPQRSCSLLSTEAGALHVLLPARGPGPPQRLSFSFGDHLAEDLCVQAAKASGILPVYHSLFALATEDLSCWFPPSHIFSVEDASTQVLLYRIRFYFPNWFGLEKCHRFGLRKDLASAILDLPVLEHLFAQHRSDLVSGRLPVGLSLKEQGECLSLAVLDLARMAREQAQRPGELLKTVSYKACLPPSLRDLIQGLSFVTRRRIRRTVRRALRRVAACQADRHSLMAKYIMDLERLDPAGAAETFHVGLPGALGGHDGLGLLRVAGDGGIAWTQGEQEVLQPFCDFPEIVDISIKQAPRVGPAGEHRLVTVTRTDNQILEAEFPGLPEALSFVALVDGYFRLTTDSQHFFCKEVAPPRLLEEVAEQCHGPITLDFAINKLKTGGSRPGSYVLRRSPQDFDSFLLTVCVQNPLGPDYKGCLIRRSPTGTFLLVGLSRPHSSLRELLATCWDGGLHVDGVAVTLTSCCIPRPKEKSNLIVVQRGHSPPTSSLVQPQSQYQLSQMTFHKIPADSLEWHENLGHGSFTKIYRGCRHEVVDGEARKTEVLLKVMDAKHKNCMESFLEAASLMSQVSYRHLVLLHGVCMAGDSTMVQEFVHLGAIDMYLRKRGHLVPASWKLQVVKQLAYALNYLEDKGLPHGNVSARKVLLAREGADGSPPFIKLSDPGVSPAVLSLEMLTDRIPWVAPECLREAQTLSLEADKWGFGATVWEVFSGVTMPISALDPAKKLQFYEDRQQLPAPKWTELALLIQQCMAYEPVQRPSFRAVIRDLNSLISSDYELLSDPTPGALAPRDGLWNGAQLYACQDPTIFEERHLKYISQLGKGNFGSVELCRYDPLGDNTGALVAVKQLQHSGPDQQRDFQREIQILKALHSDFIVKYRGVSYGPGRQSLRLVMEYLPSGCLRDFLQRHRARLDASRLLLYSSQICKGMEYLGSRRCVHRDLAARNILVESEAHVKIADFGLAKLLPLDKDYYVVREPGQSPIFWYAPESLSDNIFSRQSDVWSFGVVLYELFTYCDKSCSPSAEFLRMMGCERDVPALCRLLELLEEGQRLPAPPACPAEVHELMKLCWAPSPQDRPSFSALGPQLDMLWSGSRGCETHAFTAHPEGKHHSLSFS
Procedure, shortened: as §1

[2] = IL-2 stimulated pSTAT5, Tall-1 T cells
[3] = selectivity JAK3 over JAK1, difference of pKi
[4] = TALL-1, IL-2 stimulated pSTAT5, Tall-1 T cells
[5] = read-out: JAK 3 (pKi) (converted)
[6] = TALL-1, IL-2 stimulated pSTAT5 in Tall-1 T cells
[7] = selectivity: difference of pKi JAK3 and pKi JAK1
[8] = IL-2 stimulated pSTAT5 in Tall-1 T cells

| Compound | Tall-1 (pIC50) [1, 2] | JAK 1 (pKi) (JAK1) | JAK 3 (pKi) (JAK3) | JAK3 (pKi)-JAK1 (pKi) (JAK3; [3]) | IC50 [1, 4] [nM] | Ki (JAK1) [nM] | Ki (JAK3; [5]) [nM] | IC50 [1, 6] [nM] | JAK3 (pKi)-JAK1 (pKi) (JAK3; [7]) | Tall-1 (pIC50) [1, 8] | Ki (JAK3; JAK 3 (pKi)) [nM] |
| --- | --- | --- | --- | --- | --- | --- | --- | --- | --- | --- | --- |
| C=CC(=O)N1CCO[C@@H](C(=O)Nc2cc(-c3ccc(O)c(F)c3)cc3[nH]ncc23)C1 [Compound 13-3] | A (a pIC50 value≥7.5 (IC50≤32 nM)) | E (a pKi value of 7 or below (Ki of 100 nM or above)) | A (a pKi value≥10 (Ki≤0.1 nM)) | A (a value of 3 or above) |  |  |  |  |  |  |  |
| C=CC(=O)N1CCCC(C(=O)Nc2cc(-c3ccc(O)cc3)cc3[nH]ncc23)C1 (stereo not shown) [Compound 12-40] |  |  |  | B (a value of 2.3 to 3) | 200 to 1000 | > 100 | 0.1 to 1 |  |  |  |  |
| C=CC(=O)N1CCC(Oc2cc(-c3ccc(O)cc3)cc3[nH]ncc23)C(F)(F)C1 (stereo not shown) [Compound 6-8] |  |  |  | B (a value of 2.3 to 3) | < 31.6 | 10 to 100 | < 0.1 |  |  |  |  |
| O=C(/C=C/CN1CCCC1)N1CC(COc2cc(-c3ccc(O)cc3)cc3[nH]ncc23)C1 [Compound 3-124] |  |  |  |  |  | > 100 | 0.1 to 1 | 31.6 to 200 | A (a value of 3 or above) |  |  |
| C=CC(=O)N1CCC(Oc2nc(-c3ccc(O)c(Cl)c3)nc3[nH]ncc23)CC1 [Compound 6-22] |  |  |  | A (a value of 3 or above) | 200 to 1000 | > 100 | 0.1 to 1 |  |  |  |  |
| C=CC(=O)N1CCCC(Oc2cc(-c3ccc(O)cc3)nc3[nH]ncc23)C1 (stereo not shown) [Compound 8-6] | B (a pIC50 value between 6.7 (included) and 7.5 (IC50 between 200 nM and 32 nM)) | E (a pKi value of 7 or below (Ki of 100 nM or above)) | B (a pKi value between 9 and 10 (Ki between 1 nM and 0.1 nM)) | A (a value of 3 or above) |  |  |  |  |  |  |  |
| C=CC(=O)N1CC(C)(Oc2cc(-c3ccc(O)c(F)c3)cc3[nH]ncc23)C1 [Compound 5-24] | B (a pIC50 value between 6.7 (included) and 7.5 (IC50 between 200 nM and 32 nM)) | E (a pKi value of 7 or below (Ki of 100 nM or above)) | B (a pKi value between 9 and 10 (Ki between 1 nM and 0.1 nM)) | A (a value of 3 or above) |  |  |  |  |  |  |  |
| C=CC(=O)N1CC(C(C)(C)Oc2cc(-c3ccc(O)cc3)cc3[nH]ncc23)C1 [Compound 3-25] |  | E (a pKi value of 7 or below (Ki of 100 nM or above)) | C (a pKi value between 8 and 9 (Ki between 10 nM and 1 nM)) |  |  |  |  |  | B (a value of 2.3 to 3) | B (a pIC50 value between 6.7 (included) and 7.5 (IC50 between 200 nM and 32 nM)) |  |
| C=CC(=O)N1CC(F)(C2(Oc3cc(-c4ccc(O)cc4)cc4[nH]ncc34)CC2)C1 [Compound 12-37] |  |  |  | B (a value of 2.3 to 3) | 31.6 to 200 | 10 to 100 | 0.1 to 1 |  |  |  |  |
| C=CC(=O)N1CC(F)(COc2cc(-c3ccc(O)cc3)cc3[nH]ncc23)C1 [Compound 3-6] |  |  |  |  |  | 10 to 100 | < 0.1 | < 31.6 | A (a value of 3 or above) |  |  |
| Cc1n[nH]c2cc(-c3ccc(O)cc3)cc(OCC3CN(C(=O)/C=C/CN(C)C)C3)c12 [Compound 18-4] |  |  |  | B (a value of 2.3 to 3) | 31.6 to 200 | 10 to 100 | < 0.1 |  |  |  |  |
| C=CC(=O)N1CCC(Oc2cc(-c3ccc(O)c(F)c3)cc3[nH]ncc23)CC1 [Compound 6-14] |  |  |  | B (a value of 2.3 to 3) | < 31.6 | 10 to 100 | < 0.1 |  |  |  |  |
| CN(C)C/C=C/C(=O)N1CC[C@@H]1COc1cc(-c2ccc(O)cc2)cc2[nH]ncc12 [Compound 12-22] |  |  |  | A (a value of 3 or above) | 200 to 1000 | > 100 | 0.1 to 1 |  |  |  |  |
| C#CC(=O)N1CC[C@H](Oc2cc(-c3ccc(O)cc3)cc3[nH]ncc23)C1 [Compound 17, (S)-1-(3-((6-(4-hydroxyphenyl)-1H-indazol-4-yl)oxy)pyrrolidin-1-yl)prop-2-yn-1-one] |  |  |  |  |  | > 100 |  | 200 to 1000 | B (a value of 2.3 to 3) |  | 0.1 to 1 |
| C=CC(=O)N1CC(COc2cc(-c3ccc(O)c(F)c3)cc3[nH]nc(C)c23)C1 [Compound 18-7] |  |  |  | C (a value of 1.8 to 2.3) | < 31.6 | 10 to 100 | 0.1 to 1 |  |  |  |  |
| C=CC(=O)N1CC[C@H](Oc2cc(-c3cc(F)c(O)cc3F)cc3[nH]nc(C)c23)C1 [Compound 1-30] |  |  |  |  |  | 10 to 100 | < 0.1 | 31.6 to 200 | B (a value of 2.3 to 3) |  |  |
| O=C(/C=C/CN1CCOCC1)N1CC(COc2cc(-c3ccc(O)cc3)cc3[nH]ncc23)C1 [Compound 3-129] |  |  |  |  |  | > 100 | 0.1 to 1 | 200 to 1000 | A (a value of 3 or above) |  |  |
| C=CC(=O)N1CC(COc2cc(-c3ccc(O)cc3)cc3[nH]nc(N(C)C)c23)C1 [Compound 18-11] |  |  |  | A (a value of 3 or above) | 200 to 1000 | > 100 | 0.1 to 1 |  |  |  |  |
| C=CC(=O)N1CCC(COc2nc(-c3ccc(O)c(Cl)c3)cc3[nH]ncc23)CC1 [Compound 14-7] | A (a pIC50 value≥7.5 (IC50≤32 nM)) | D (a pKi value between 7 and 8 (Ki between 100 nM and 10 nM)) | A (a pKi value≥10 (Ki≤0.1 nM)) | B (a value of 2.3 to 3) |  |  |  |  |  |  |  |
| C=CC(=O)N1CCC(COc2nc(-c3ccc(O)cc3)cc3[nH]ncc23)CC1 [Compound 14-6] | A (a pIC50 value≥7.5 (IC50≤32 nM)) | D (a pKi value between 7 and 8 (Ki between 100 nM and 10 nM)) | A (a pKi value≥10 (Ki≤0.1 nM)) | B (a value of 2.3 to 3) |  |  |  |  |  |  |  |
| CN(C)C/C=C/C(=O)N1CC[C@H](Oc2cc(-c3ccc(O)c(Cl)c3)cc3[nH]ncc23)C1 [Compound 1-3] |  |  |  |  |  | > 100 | 0.1 to 1 | 31.6 to 200 | A (a value of 3 or above) |  |  |
| CN(C)C/C=C/C(=O)N1CCC(COc2nc(-c3ccc(O)c(F)c3)cc3[nH]ncc23)CC1 [Compound 14-11] | C (a pIC50 value between 6 and 6.7 (IC50 between 1 μM and 200 nM)) | D (a pKi value between 7 and 8 (Ki between 100 nM and 10 nM)) | B (a pKi value between 9 and 10 (Ki between 1 nM and 0.1 nM)) | B (a value of 2.3 to 3) |  |  |  |  |  |  |  |
| CN(C)C/C=C/C(=O)N1CCC(Sc2cc(-c3ccc(O)cc3)cc3[nH]ncc23)CC1 [Compound 12-5] |  |  |  | B (a value of 2.3 to 3) | 31.6 to 200 | > 100 | 0.1 to 1 |  |  |  |  |
| CN(C)C/C=C/C(=O)N1CCC(Nc2cc(-c3ccc(O)cc3)cc3[nH]ncc23)C(F)(F)C1 (stereo not shown) [Compound 7-5] |  |  |  | C (a value of 1.8 to 2.3) | 31.6 to 200 | 10 to 100 | 0.1 to 1 |  |  |  |  |
| CN(C)C/C=C/C(=O)N1CC[C@H](COc2cc(-c3ccc(O)c(F)c3)cc3[nH]ncc23)C1 [Compound 2-4] |  | E (a pKi value of 7 or below (Ki of 100 nM or above)) | B (a pKi value between 9 and 10 (Ki between 1 nM and 0.1 nM)) |  |  |  |  |  | B (a value of 2.3 to 3) | C (a pIC50 value between 6 and 6.7 (IC50 between 1 μM and 200 nM)) |  |
